Data: PubChem BioAssay AID212 (DTP/NCI, 2004)
“And” between values parts separate entries of the source, which are not always exact repeats. Identical values can stand only once. Records with an inconclusive call do not appear. Where a SMILES comes first, the peptide text is derived from it. Bridges are numbered along the chain shown (N, C = ends). Roman numbers before positions name the chains, in order. [ ]: non-standard residue; d: D form. The star is where a group is joined. Quinoxaline2carbonyl = O=C(c1cnc2ccccc2n1)*; NMeV = CN[CH](C(=O)O)C(C)C; NMeC = CN[CH](CS)C(=O)O

System: BDF1 mice, colon carcinoma 38 sc, T/C %
Experiment: NCI In Vivo Anticancer Drug Screen. Data for tumor model Colon Carcinoma 38 (subcutaneous) in B6D2F1 (BDF1) mice
Outline: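 T/C readout: treated group (T) measurement over vehicle control group (C) measurement. Endpoint is survival or tumor size in mice bearing a transplanted tumor.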

[1] = endpoint: median tumor weight (est.), dose: 100.0 mg/kg/injection, schedule: Q07DX002 (ip), vehicle: saline with Tween-80, higher = larger tumour

Question: Which T/C (endpoint: median survival time, dose: 5.2 mg/kg/injection, schedule: Q04HX021 (ip), vehicle: sodium bicarbonate, higher = longer survival) does the source give for `COc1cc(NCc2ccc3nc(N)nc(N)c3c2C)cc(OC)c1OC` here?
Answer: 183 % of control

Question: And the T/C (endpoint: median survival time, dose: 5.9 mg/kg/injection, schedule: Q06HX014 (ip), vehicle: sodium bicarbonate, higher = longer survival)?
Answer: 120 % of control

Question: And the T/C (endpoint: median survival time, dose: 8.4 mg/kg/injection, schedule: Q04HX021 (ip), vehicle: sodium bicarbonate, higher = longer survival)?
Answer: 194 % of control

Question: What about the T/C (endpoint: median survival time, dose: 8.8 mg/kg/injection, schedule: Q06HX012 (oral), vehicle: sodium bicarbonate, higher = longer survival) of the same compound?
Answer: 116 % of control

Question: What about the T/C (endpoint: median survival time, dose: 8.8 mg/kg/injection, schedule: Q06HX014 (ip), vehicle: sodium bicarbonate, higher = longer survival) of the same compound?
Answer: 175 % of control

Question: And the T/C (endpoint: median survival time, dose: 20.0 mg/kg/injection, schedule: Q06HX012 (oral), vehicle: sodium bicarbonate, higher = longer survival)?
Answer: 177 % of control

Question: And the T/C (endpoint: median survival time, dose: 67.0 mg/kg/injection, schedule: Q07DX002 (ip), vehicle: sodium bicarbonate, higher = longer survival)?
Answer: 157 % of control

Question: And the T/C (endpoint: median tumor weight (est.), dose: 1.88 mg/kg/injection, schedule: Q07DX002 (ip), vehicle: sodium bicarbonate, higher = larger tumour)?
Answer: 152 % of control

Question: What about the T/C (endpoint: median tumor weight (est.), dose: 12.5 mg/kg/injection, schedule: Q07DX002 (ip), vehicle: water, higher = larger tumour) of the same compound?
Answer: 121 % of control

Question: What about the T/C (endpoint: median tumor weight (est.), dose: 25.0 mg/kg/injection, schedule: Q07DX002 (ip), vehicle: water, higher = larger tumour) of the same compound?
Answer: 109 % of control

Question: And the T/C (endpoint: median tumor weight (est.), dose: 50.0 mg/kg/injection, schedule: Q07DX002 (ip), vehicle: water, higher = larger tumour)?
Answer: 109 % of control

Question: And the T/C (endpoint: median tumor weight (est.), dose: 53.0 mg/kg/injection, schedule: Q07DX002 (ip), vehicle: water, higher = larger tumour)?
Answer: 85 % of control

Question: What about the T/C (endpoint: median tumor weight (est.), dose: 66.0 mg/kg/injection, schedule: Q07DX002 (ip), vehicle: water, higher = larger tumour) of the same compound?
Answer: 90 % of control

Question: And the T/C (endpoint: median tumor weight (est.), dose: 70.0 mg/kg/injection, schedule: Q07DX002 (ip), vehicle: water, higher = larger tumour)?
Answer: 120 % of control

Question: What about the T/C (endpoint: median tumor weight (est.), dose: 80.0 mg/kg/injection, schedule: Q07DX002 (ip), vehicle: water, higher = larger tumour) of the same compound?
Answer: 82 % of control

Question: What about the T/C (endpoint: median tumor weight (est.), dose: 99.0 mg/kg/injection, schedule: Q07DX002 (ip), vehicle: water, higher = larger tumour) of the same compound?
Answer: 87 % of control

Question: What about the T/C (endpoint: median tumor weight (est.), dose: 100.0 mg/kg/injection, schedule: Q07DX002 (ip), vehicle: water, higher = larger tumour) of the same compound?
Answer: 217 % of control

Question: What about the T/C (endpoint: median tumor weight (est.), dose: 105.0 mg/kg/injection, schedule: Q07DX002 (ip), vehicle: water, higher = larger tumour) of the same compound?
Answer: 82 % of control

Question: What about the T/C (endpoint: median tumor weight (est.), dose: 120.0 mg/kg/injection, schedule: Q07DX002 (ip), vehicle: sodium bicarbonate, higher = larger tumour) of the same compound?
Answer: 4 % of control

Question: And the T/C (endpoint: median tumor weight (est.), dose: 120.0 mg/kg/injection, schedule: Q07DX002 (ip), vehicle: water, higher = larger tumour)?
Answer: 83 % of control

Question: With `CC(=O)OCC1(C)NC(=O)c2ccccc2O1` (centres undefined) as the compound, how does the T/C (endpoint: median tumor weight (est.), dose: 56.2 mg/kg/injection, schedule: Q07DX002 (ip), vehicle: saline with Tween-80, higher = larger tumour) read?
Answer: 54 % of control

Question: What about the T/C [1] of the same compound?
Answer: 98 % of control

Question: And the T/C (endpoint: median tumor weight (est.), dose: 112.5 mg/kg/injection, schedule: Q07DX002 (ip), vehicle: saline with Tween-80, higher = larger tumour)?
Answer: 62 % of control

Question: And the T/C (endpoint: median tumor weight (est.), dose: 200.0 mg/kg/injection, schedule: Q07DX002 (ip), vehicle: saline with Tween-80, higher = larger tumour)?
Answer: 109 % of control

Question: What about the T/C (endpoint: median tumor weight (est.), dose: 225.0 mg/kg/injection, schedule: Q07DX002 (ip), vehicle: saline with Tween-80, higher = larger tumour) of the same compound?
Answer: 69 % of control

Question: What about the T/C (endpoint: median tumor weight (est.), dose: 400.0 mg/kg/injection, schedule: Q07DX002 (ip), vehicle: saline with Tween-80, higher = larger tumour) of the same compound?
Answer: 153 % of control

Question: And the T/C (endpoint: median tumor weight (est.), dose: 450.0 mg/kg/injection, schedule: Q07DX002 (ip), vehicle: saline with Tween-80, higher = larger tumour)?
Answer: 48 % of control

Question: What about the T/C (endpoint: median tumor weight (est.), dose: 900.0 mg/kg/injection, schedule: Q07DX002 (ip), vehicle: saline with Tween-80, higher = larger tumour) of the same compound?
Answer: 48 % of control

Question: What does the source list for `CC1NC(=O)C(NC(=O)c2cnc3ccccc3n2)COC(=O)C(C(C)C)N(C)C(=O)C2CSSCC(C(=O)N(C)C(C(C)C)C(=O)OCC(NC(=O)c3cnc4ccccc4n3)C(=O)NC(C)C(=O)N2C)N(C)C1=O` (centres undefined) (I: Quinoxaline2carbonyl-SA[NMeC][NMeV] / II: Quinoxaline2carbonyl-SA[NMeC][NMeV]; ester I:1-II:C, I:C-II:1; disulfide I:3-II:3; configuration not given here)?
Answer: T/C (endpoint: median tumor weight (est.), dose: 25.0 micrograms/kg/injection, schedule: Q07DX002 (ip), vehicle: Klucel (hydroxypropylcellulose) (HPC), higher = larger tumour): 102 % of control; T/C (endpoint: median tumor weight (est.), dose: 50.0 micrograms/kg/injection, schedule: Q07DX002 (ip), vehicle: Klucel (hydroxypropylcellulose) (HPC), higher = larger tumour): 74 % of control; T/C (endpoint: median tumor weight (est.), dose: 100.0 micrograms/kg/injection, schedule: Q07DX002 (ip), vehicle: Klucel (hydroxypropylcellulose) (HPC), higher = larger tumour): 84 % of control; T/C (endpoint: median tumor weight (est.), dose: 200.0 micrograms/kg/injection, schedule: Q07DX002 (ip), vehicle: Klucel (hydroxypropylcellulose) (HPC), higher = larger tumour): 95 % of control

Question: Which results are given for `CCOC1=Cc2c(oc3c(C(C)(C)C)cc(OCC)cc23)OC(C(C)(C)C)=C1`?
Answer: T/C (endpoint: median tumor weight (est.), dose: 0.78 mg/kg/injection, schedule: Q07DX002 (ip), vehicle: saline with Tween-80, higher = larger tumour): 94 % of control; T/C (endpoint: median tumor weight (est.), dose: 1.56 mg/kg/injection, schedule: Q07DX002 (ip), vehicle: saline with Tween-80, higher = larger tumour): 102 % of control; T/C (endpoint: median tumor weight (est.), dose: 6.25 mg/kg/injection, schedule: Q07DX002 (ip), vehicle: saline with Tween-80, higher = larger tumour): 83 % of control (2×) and 88 % of control; T/C (endpoint: median tumor weight (est.), dose: 12.5 mg/kg/injection, schedule: Q07DX002 (ip), vehicle: saline with Tween-80, higher = larger tumour): 64 % of control and 65 % of control; T/C (endpoint: median tumor weight (est.), dose: 25.0 mg/kg/injection, schedule: Q07DX002 (ip), vehicle: saline with Tween-80, higher = larger tumour): 55 % of control and 64 % of control; T/C (endpoint: median tumor weight (est.), dose: 50.0 mg/kg/injection, schedule: Q07DX002 (ip), vehicle: saline with Tween-80, higher = larger tumour): 51 % of control and 65 % of control; T/C [1]: 72 % of control and 77 % of control

Question: Which results are given for `C1CCC2C[N-]CCC2C1.C1CCC2C[N-]CCC2C1.C1CCC2C[N-]CCC2C1.C1CCC2C[N-]CCC2C1.[Cl][Rh][Cl]` (centres undefined)?
Answer: T/C (endpoint: median tumor weight (est.), dose: 1.0 mg/kg/injection, schedule: Q07DX003 (ip), vehicle: saline, higher = larger tumour): 107 % of control; T/C (endpoint: median tumor weight (est.), dose: 2.0 mg/kg/injection, schedule: Q07DX003 (ip), vehicle: saline, higher = larger tumour): 62 % of control; T/C (endpoint: median tumor weight (est.), dose: 4.0 mg/kg/injection, schedule: Q07DX003 (ip), vehicle: saline, higher = larger tumour): 82 % of control; T/C (endpoint: median tumor weight (est.), dose: 8.0 mg/kg/injection, schedule: Q07DX003 (ip), vehicle: saline, higher = larger tumour): 87 % of control; T/C (endpoint: median tumor weight (est.), dose: 16.0 mg/kg/injection, schedule: Q07DX003 (ip), vehicle: saline, higher = larger tumour): 78 % of control
